This assay in a line: Topical application of alkaloid-containing analgesic salve formulations, observed pain relief. The assay is classed as in vivo, patients. The note with it: for notable effect of secondary ingredient added to formulation: secondary ingredient in topical formulation. From the text:
In most embodiments, three-cup batches of oil and wax (e.g.; 2¼ cup oil, ¾ cup wax or other hardening agent) were infused with an extract produced from at least two ounces of plant matter processed using the above method. In a preferred embodiment, an extract produced from around 4.5 to 6 ounces of herbal material yielded the best results as far as optimal pain relief for the amount of product used.
In one embodiment, a formulation for a kratom alkaloid-based topical product involves extracting alkaloids from kratom powder into a food-grade oil (such as coconut oil) at 160° F. The powder may be combined with a lecithin (such as a sunflower lecithin) to aid in extraction.
In a further embodiment, a formulation involves extracting alkaloids from kratom powder into a food-grade oil at 160° F. for two hours and adding one or more carrier oils. The carrier oils comprise black pepper oil, turmeric oil, peppermint oil and lemon oil. A hardening agent, such as beeswax, may also be added. Piperine (a black pepper alkaloid), curcumin (a metabolite of turmeric), peppermint oil, and lemon oil are intended as dermal carriers and absorption enhancers. Piperine is known to increase curcumin bioavailability.
In a further embodiment, a severe pain relief formulation involves extracting alkaloids from kratom powder into a food-grade oil at 160° F. for two hours and adding one or more carrier oils. The carrier oils comprise black pepper oil, turmeric oil, peppermint oil (alternately, eucalyptus or naioli oils will suffice since they contain similar compounds), lemon oil, magnesium oil, St John's Wort oil, arnica oil, parsley oil, cinnamon oil, lemongrass oil, ginger oil, arnica oil (comprises helenalin, fatty acids (inolenic, palmitic, linoleic, and myristic) thymol, ethers of thymol, thymohydroquinone dimethyl ether, and phlorol isobutyrate (2%)), Ylang Ylang (Cananga odorata) oil (comprises linalool, caryophyllene and germacrene), and/or Black Seed oil (comprises anethole, p-cymene, limonene, carvone and thymoquinone). […] FIG. 2 provides a table 200 listing primary herbal extract sources 210 and secondary ingredients 220, including but not limited to dermal absorption enhancers 222, alkaloid potentiators 224, neuropathic relief agents 226, and anti-inflammation agents 228.
In yet another embodiment, a severe pain and inflammation relief formulation involves extracting alkaloids from kratom powder into a food-grade oil at 160° F. for two hours and adding one or more carrier oils. The carrier oils comprise black pepper oil, turmeric oil, peppermint oil, lemon oil, magnesium oil, St. John's Wort oil, arnica oil, and ginger oil. The kratom powder may be a combination of concentrated kratom extract and kratom powder. […]

Regarding `Oc1ccc(/C=C/c2cc(O)cc(O)c2)cc1` [Trans-resveratrol], for the setting “added to the formulation as alkaloid potentiator”, the “increase of the effect of a formulation (duration)” value is given as “approximately two hours or longer”.
As for `O=c1c(O)c(-c2ccc(O)c(O)c2)oc2cc(O)cc(O)c12` [quercetin], the “notable effect of secondary ingredient added to formulation” value (“notable effect” for short) was “decreased pain and inflammation”.
For copper salicylate, the “notable effect” value is on record as “minor improvement to pain relief”.
As to magnesium stearate, the “notable effect” value is “relieved muscle spasms”.
